One assay concerns Mycoplasma synoviae. Put plainly: MIC, broth-dilution microtiter test, Mycoplasma synoviae. As to conditions: Mycoplasmopsis synoviae. The assay is classed as cell-based. The text has this: (§1) The MIC's in Table X were obtained using conventional broth-dilution microtiter tests.
A further assay relates to Mycoplasma gallisepticum. The experiment in a line: MIC, broth-dilution microtiter test, Mycoplasma gallisepticum. The assay is classed as cell-based. The note with it: Mycoplasmoides gallisepticum.
Excerpt: as §1

Assay [1] has as its system Staphylococcus aureus X1.1. Put plainly: MIC, standard agar-dilution assay, Staphylococcus aureus X1.1. The class given is cell-based. The note with it: Staphylococcus aureus, X1.1.
In the next assay the test system is Streptococcus bovis 80. Put plainly: MIC, broth-dilution microtiter test, Streptococcus bovis 80. The class given is cell-based. The note with it: Streptococcus equinus.
Excerpt: as §1

Assay [2] concerns Streptococcus pyogenes C203. The experiment in a line: In vivo protection of mice experimentally infected with S. pyogenes C203. The note with it: Streptococcus pyogenes, mice, doses given 1 and 4 hours post-infection. The method, then:
The C-20 modified derivatives of this invention have shown in vivo antimicrobial activity against experimentally-induced infections in laboratory animals. When two doses of test compound were administered to mice experimentally infected with S. pyogenes C203, the activity observed was measured as an ED50 value [effective dose in mg/kg to protect 50% of the test animals: see Warren Wick, et al., J. Bacteriol. 81, 233-235 (1961)].

The subject of assay [3] is Pasteurella multocida 60A. The experiment in a line: MIC, broth-dilution microtiter test, Pasteurella multocida 60A. The class given is cell-based. As to conditions: Pasteurella multocida 60A; avian isolate; broth-dilution microtiter; read-out: MIC.
Excerpt: as §1

Assay [4] has as its system Staphylococcus aureus S13E. Put plainly: MIC, standard agar-dilution assay, Staphylococcus aureus S13E. The assay is classed as cell-based. The note with it: Staphylococcus aureus, S13E.
In assay [5] the test system is Pasteurella multocida 17E. The experiment in a line: MIC, broth-dilution microtiter test, Pasteurella multocida 17E. The class given is cell-based. The note with it: Pasteurella multocida 17E; bovine isolate; broth-dilution microtiter; read-out: MIC.
Excerpt: as §1

Assay [6] deals with Haemophilus influenzae Holt. Put plainly: MIC, standard agar-dilution assay, Haemophilus influenzae Holt. The class given is cell-based.
For a further assay, the system named is Mycoplasma hyorhinis. The experiment in a line: MIC, broth-dilution microtiter test, Mycoplasma hyorhinis. The assay is classed as cell-based.
Excerpt: as §1

For assay [7], the system named is Staphylococcus aureus X400. The experiment in a line: MIC, standard agar-dilution assay, Staphylococcus aureus X400. The assay is classed as cell-based. The note with it: Staphylococcus aureus, X400.
Assay [8] has as its system Staphylococcus epidermidis EPI1. Put plainly: MIC, standard agar-dilution assay, Staphylococcus epidermidis EPI1. The class given is cell-based.
The next assay concerns Streptococcus Group 9960. The experiment in a line: MIC, standard agar-dilution assay, Streptococcus Group 9960. As to conditions: GROUP9960; Streptococcus Group 9960; agar dilution; read-out: MIC. The assay is classed as cell-based. In general terms: In agar dilution the substance is mixed into plates at graded concentrations.
Assay [9] has as its system Staphylococcus aureus V41. Put plainly: MIC, standard agar-dilution assay, Staphylococcus aureus V41. The class given is cell-based.
In assay [10] the test system is Haemophilus influenzae R252. Put plainly: MIC, standard agar-dilution assay, Haemophilus influenzae R252. The class given is cell-based.
Assay [11] concerns Streptococcus pneumoniae Park I. Put plainly: microbe, parasite or virus in culture. The class given is cell-based. The note with it: Streptococcus pneumoniae.
Assay [12] has as its system Pasteurella hemolytica 22C. The experiment in a line: MIC, broth-dilution microtiter test, Pasteurella hemolytica 22C. The assay is classed as cell-based. The note with it: Pasteurella hemolytica 22C; broth-dilution microtiter; read-out: MIC.
Excerpt: as §1

The subject of a further assay is Staphylococcus aureus. Put plainly: MIC, broth-dilution microtiter test, Staphylococcus aureus. The class given is cell-based.
Excerpt: as §1

In assay [13] the test system is Streptococcus Group D X66. Put plainly: MIC, standard agar-dilution assay, Streptococcus Group D X66. The class given is cell-based. The note with it: Streptococcus Group D X66; agar dilution; read-out: MIC.
In assay [14] the test system is Streptococcus pyogenes C203. Put plainly: MIC, standard agar-dilution assay, Streptococcus pyogenes C203. The assay is classed as cell-based.
For assay [15], the system named is Staphylococcus epidermidis EPI2. Put plainly: MIC, standard agar-dilution assay, Staphylococcus epidermidis EPI2. The note with it: Staphylococcus epidermidis, EPI2. The class given is cell-based.
Setting [16] is: Streptococcus bovis 80, broth-dilution microtiter, read-out: MIC.
Where [17] appears, read: C203, sc, subcutaneous, read-out: ED50, Subcutaneous.
Where [18] appears, read: C203, oral, read-out: ED50, Oral.
Setting [19] is: Mycoplasma hyorhinis, broth-dilution microtiter, read-out: MIC.
The mark [20] stands for this setting: Staphylococcus epidermidis, EPI1.

Values after ≈ are worked out from the molar mass of the structure shown. Like-named read-outs stand apart in the source and are kept apart here.

For orientation: ED50 means the dose at which the effect has come halfway, by size or by number of responders. For `CCC1OC(=O)CC(O)C(C)C(OC2OC(C)C(OC3CC(C)(O)C(O)C(C)O3)C(N(C)C)C2O)C(CCSc2nnnn2C)CC(C)C(=O)C=CC(C)=CC1COC1OC(C)C(O)C(OC)C1OC` (stereo not shown) [Compound 5, 20-DH-DO-20-[(1-N-Methyltetrazol-5-yl)thio]tylosin], the MIC is 3.12 mg/L (≈ 3.07 µM) in the assay with Mycoplasma synoviae; 1.56 mg/L (≈ 1.54 µM) against Mycoplasma gallisepticum; 0.5 mg/L (≈ 0.492 µM) in assay [1]; over 50 mg/L with Streptococcus bovis 80 (setting [16]); over 50 mg/L in assay [3]; 2 mg/L (≈ 1.97 µM) in assay [4]. The MIC is over 50 mg/L in assay [5]; over 128 mg/L in [6] (Haemophilus influenzae); over 50 mg/L in the assay with Mycoplasma hyorhinis (setting [19]); 2 mg/L (≈ 1.97 µM) in assay [7]; 1 mg/L (≈ 0.984 µM) in assay [8] (Staphylococcus epidermidis EPI1, agar dilution, read-out: MIC); 128 mg/L (≈ 126 µM) in the assay on Streptococcus Group 9960. Moreover, the MIC in assay [9] (Staphylococcus aureus V41, penicillin-resistant strain, agar dilution, read-out: MIC) was 1 mg/L (≈ 0.984 µM); in [10] (Haemophilus influenzae, R252), 128 mg/L (≈ 126 µM); in [11] it was 32 mg/L (≈ 31.5 µM); in [12] it was over 50 mg/L; in the assay on Staphylococcus aureus it was 1.56 mg/L (≈ 1.54 µM); in [13], 128 mg/L (≈ 126 µM). Besides, the MIC in assay [14] (Streptococcus pyogenes C203, agar dilution, read-out: MIC) was determined as 1 mg/L (≈ 0.984 µM). Also, the median effective dose (ED50) in [2] (setting [17]) is over 6.3 mg/kg; in [2] (setting [18]) it was 56 mg/kg.
On to `CCC1OC(=O)CC(O)C(C)C(OC2OC(C)C(O)C(N(C)C)C2O)C(CCI)CC(C)C(=O)C=CC(C)=CC1COC1OC(C)C(O)C(O)C1OC` (stereo not shown) [Compound 57, 20-DH-DO-20-Iodolactenocin], for which the MIC with Mycoplasma synoviae was 1.56 mg/L (≈ 1.79 µM); against Mycoplasma gallisepticum it was 3.12 mg/L (≈ 3.59 µM); in assay [1], 0.5 mg/L (≈ 0.575 µM); in the assay on Streptococcus bovis 80 (80), 3.12 mg/L (≈ 3.59 µM); in assay [3] it was 25 mg/L (≈ 28.7 µM); in assay [4] it was 0.5 mg/L (≈ 0.575 µM). Also, the MIC in assay [5] is 25 mg/L (≈ 28.7 µM); against Mycoplasma hyorhinis (Mycoplasma) it was 50 mg/L (≈ 57.5 µM); in assay [7], 1 mg/L (≈ 1.15 µM); in [8] (setting [20]), 0.5 mg/L (≈ 0.575 µM); with Streptococcus Group 9960, 16 mg/L (≈ 18.4 µM); in assay [9] (Staphylococcus aureus, V41) it was 0.5 mg/L (≈ 0.575 µM). Further, the MIC in assay [15] worked out at 0.5 mg/L (≈ 0.575 µM); in [11] it was 4 mg/L (≈ 4.6 µM); in assay [12], 25 mg/L (≈ 28.7 µM); in the assay on Staphylococcus aureus, 0.78 mg/L (≈ 0.897 µM); in assay [13] it was 16 mg/L (≈ 18.4 µM); in assay [14] (Streptococcus pyogenes, C203), 0.5 mg/L (≈ 0.575 µM). Besides, the median effective dose (ED50) in assay [2] (setting [17]) came out at 5.2 mg/kg; in assay [2] (setting [18]), 79 mg/kg.
Turning to `CCC1CC(C)C(=O)C=CC(C)=CC(COC2OC(C)C(O)C(O)C2OC)C(CC)OC(=O)CC(O)C(C)C1OC1OC(C)C(O)C(N(C)C)C1O` (stereo not shown) [Compound 60, 20-DH-DO-Lactenocin], the MIC with Mycoplasma synoviae (Mycoplasma synoviae, broth-dilution microtiter, read-out: MIC) was over 50 mg/L; against Mycoplasma gallisepticum, 1.56 mg/L (≈ 2.1 µM); in assay [1], 0.25 mg/L (≈ 0.336 µM); in the assay on Streptococcus bovis 80 (setting [16]) it was 6.25 mg/L (≈ 8.4 µM); in [3], 25 mg/L (≈ 33.6 µM); in [4] it was 0.25 mg/L (≈ 0.336 µM). Also, the MIC in assay [5] worked out at 25 mg/L (≈ 33.6 µM); in the assay with Mycoplasma hyorhinis (Mycoplasma), 50 mg/L (≈ 67.2 µM); in assay [7] it was 0.5 mg/L (≈ 0.672 µM); in assay [8] (setting [20]), 0.25 mg/L (≈ 0.336 µM); in the assay on Streptococcus Group 9960, 8 mg/L (≈ 10.8 µM); in [9] (Staphylococcus aureus, V41), 0.25 mg/L (≈ 0.336 µM). For the same compound, the MIC in assay [10] (Haemophilus influenzae, R252) is 16 mg/L (≈ 21.5 µM); in [15], 0.25 mg/L (≈ 0.336 µM); in [11] it was 0.5 mg/L (≈ 0.672 µM); in [12], 25 mg/L (≈ 33.6 µM); against Staphylococcus aureus it was 0.78 mg/L (≈ 1.05 µM); in assay [13], 8 mg/L (≈ 10.8 µM). Also, the median effective dose (ED50) in assay [2] (setting [17]) was 3.9 mg/kg; in [2] (setting [18]) it was 46 mg/kg.
Regarding `CCC1OC(=O)CC(O)C(C)C(OC2OC(C)C(OC3CC(C)(O)C(O)C(C)O3)C(N(C)C)C2O)C(CCN=[N+]=[N-])CC(C)C(=O)C=CC(C)=CC1COC1OC(C)C(O)C(OC)C1OC` (stereo not shown) [Compound 2, 20-DH-DO-20-Azidotylosin], the MIC is 12.5 mg/L (≈ 13.3 µM) in the assay with Mycoplasma synoviae; 1.56 mg/L (≈ 1.65 µM) in the assay with Mycoplasma gallisepticum; 2 mg/L (≈ 2.12 µM) in assay [1]; 50 mg/L (≈ 53 µM) with Streptococcus bovis 80 (setting [16]); over 50 mg/L in [3]; 1 mg/L (≈ 1.06 µM) in assay [4]. Besides, the MIC in [5] was over 50 mg/L; in assay [6] (Haemophilus influenzae Holt, ampicillin-sensitive strain, read-out: MIC), over 128 mg/L; in the assay with Mycoplasma hyorhinis (setting [19]), over 50 mg/L; in assay [7], 2 mg/L (≈ 2.12 µM); in [8] (setting [20]), 1 mg/L (≈ 1.06 µM); with Streptococcus Group 9960 it was 128 mg/L (≈ 136 µM). Moreover, the MIC is 1 mg/L (≈ 1.06 µM) in [9] (Staphylococcus aureus, V41); over 128 mg/L in assay [10] (Haemophilus influenzae R252, ampicillin-resistant strain, read-out: MIC); 32 mg/L (≈ 33.9 µM) in assay [11]; over 50 mg/L in [12]; 3.12 mg/L (≈ 3.31 µM) in the assay on Staphylococcus aureus; 128 mg/L (≈ 136 µM) in assay [13]. In addition, the MIC in assay [14] (Streptococcus pyogenes, C203) turned out to be 2 mg/L (≈ 2.12 µM). The ED50 was over 6.3 mg/kg in assay [2] (setting [17]) and 18 mg/kg in assay [2] (setting [18]).

The record behind these values is patent publication US4443436A, “C-20-Modified macrolide derivatives of the macrolide antibiotics tylosin, desmycosin, macrocin, and lactenocin” (Eli Lilly and Company, priority 1982, dated 1984).
